# ChEMBL document CHEMBL1139219, “Synthesis and biological evaluation of quinoline salicylic acids as P-selectin antagonists” (J Med Chem, 2007)
# Active and inactive are the calls of the source. The rule behind the calls is not given here.
# Experiments:
# HUVEC = assay: Inhibition of neutrophil adhesion to IL4-stimulated HUVEC by leukocyte rolling assay; assay type: functional, cell-based; settings: Homo sapiens
# [1] = target: Dihydroorotate dehydrogenase (quinone), mitochondrial (Homo sapiens, UniProt Q02127)
# Description: Inhibition of human recombinant DHOD expressed in Escherichia coli
# [2] = target: P-selectin (Homo sapiens) (UniProt P16109); assay: Inhibition of human recombinant P-selectin expressed in CHO cells by Biacore assay at 250 uM
# [3] = target: P-selectin (Homo sapiens) (UniProt P16109); assay: Inhibition of human recombinant P-selectin expressed in CHO cells by Biacore assay at 6 mM
# [4] = Clearance in Sprague-Dawley rat at 1 mg/kg, iv; assay type: ADME, organism-based; set-up: dose 1 mg/kg, route intravenous; settings: in vivo
# [5] = AUC in Sprague-Dawley rat at 1 mg/kg, iv; assay type: ADME, organism-based; set-up: dose 1 mg/kg, route intravenous; settings: plasma
# [6] = Cmax in Sprague-Dawley rat at 1 mg/kg, iv; assay type: ADME, organism-based; set-up: dose 1 mg/kg, route intravenous; settings: in vivo
# [7] = target: Dihydroorotate dehydrogenase (quinone), mitochondrial (Rattus norvegicus) (UniProt Q63707)
# Description: Antagonist activity against DHOD in rat
# Rattus norvegicus [8] = organism: Rattus norvegicus; assay: Toxicity in Lewis rat Freund's complete adjuvant-induced arthritis model; assay type: organism-based; settings: in vivo
# Rattus norvegicus [9] = assay: Plasma concentration in Lewis rat Freund's complete adjuvant-induced arthritis model at 10 mg/kg, po; assay type: ADME, organism-based; set-up: dose 10 mg/kg, route oral; settings: in vivo
# Cytochrome P450 2C9 = Cytochrome P450 2C9 (Homo sapiens, UniProt P11712); assay: Inhibition of human CYP2C9; assay type: ADME
# Cytochrome P450 2C8 = target: T1, Cytochrome P450 2C8 (Homo sapiens, UniProt P10632); assay: Inhibition of human CYP2C8; assay type: ADME
# T1 sequence (P10632 whole entry): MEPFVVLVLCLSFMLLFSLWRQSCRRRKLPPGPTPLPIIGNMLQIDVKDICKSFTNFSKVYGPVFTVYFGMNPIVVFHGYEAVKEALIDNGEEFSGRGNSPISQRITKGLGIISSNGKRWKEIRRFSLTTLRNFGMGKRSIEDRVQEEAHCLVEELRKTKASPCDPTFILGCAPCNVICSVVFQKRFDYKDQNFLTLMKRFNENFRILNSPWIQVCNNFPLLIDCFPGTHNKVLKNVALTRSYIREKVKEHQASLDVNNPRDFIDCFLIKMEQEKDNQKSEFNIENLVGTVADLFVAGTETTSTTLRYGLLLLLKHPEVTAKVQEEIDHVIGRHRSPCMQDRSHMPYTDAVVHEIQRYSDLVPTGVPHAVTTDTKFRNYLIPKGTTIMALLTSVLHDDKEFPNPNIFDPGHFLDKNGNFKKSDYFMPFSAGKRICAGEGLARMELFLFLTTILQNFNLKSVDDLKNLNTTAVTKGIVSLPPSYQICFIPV
# Cytochrome P450 1A2 = target: T2, Cytochrome P450 1A2 (Homo sapiens, UniProt P05177); assay: Inhibition of human CYP1A2; assay type: ADME
# T2 sequence (P05177 whole entry): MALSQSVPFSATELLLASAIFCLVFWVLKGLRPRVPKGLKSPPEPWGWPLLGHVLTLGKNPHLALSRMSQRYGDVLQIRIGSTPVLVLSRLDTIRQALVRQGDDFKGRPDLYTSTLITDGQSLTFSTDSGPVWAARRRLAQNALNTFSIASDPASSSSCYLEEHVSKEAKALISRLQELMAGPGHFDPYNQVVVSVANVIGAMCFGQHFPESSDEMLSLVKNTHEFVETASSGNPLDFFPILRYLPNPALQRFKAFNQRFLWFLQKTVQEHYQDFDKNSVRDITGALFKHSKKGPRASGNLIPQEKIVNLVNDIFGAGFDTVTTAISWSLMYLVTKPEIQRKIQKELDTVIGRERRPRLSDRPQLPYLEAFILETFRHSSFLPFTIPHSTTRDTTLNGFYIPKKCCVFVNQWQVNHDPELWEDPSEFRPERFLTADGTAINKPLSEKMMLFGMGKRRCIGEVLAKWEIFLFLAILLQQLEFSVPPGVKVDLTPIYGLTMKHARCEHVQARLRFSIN
# Cytochrome P450 2C19 = Cytochrome P450 2C19 (Homo sapiens, UniProt P33261); assay: Inhibition of human CYP2C19; assay type: ADME
# Cytochrome P450 2A6 = target: T3, Cytochrome P450 2A6 (Homo sapiens, UniProt P11509); assay: Inhibition of human CYP2A6; assay type: ADME
# T3 sequence (P11509 whole entry): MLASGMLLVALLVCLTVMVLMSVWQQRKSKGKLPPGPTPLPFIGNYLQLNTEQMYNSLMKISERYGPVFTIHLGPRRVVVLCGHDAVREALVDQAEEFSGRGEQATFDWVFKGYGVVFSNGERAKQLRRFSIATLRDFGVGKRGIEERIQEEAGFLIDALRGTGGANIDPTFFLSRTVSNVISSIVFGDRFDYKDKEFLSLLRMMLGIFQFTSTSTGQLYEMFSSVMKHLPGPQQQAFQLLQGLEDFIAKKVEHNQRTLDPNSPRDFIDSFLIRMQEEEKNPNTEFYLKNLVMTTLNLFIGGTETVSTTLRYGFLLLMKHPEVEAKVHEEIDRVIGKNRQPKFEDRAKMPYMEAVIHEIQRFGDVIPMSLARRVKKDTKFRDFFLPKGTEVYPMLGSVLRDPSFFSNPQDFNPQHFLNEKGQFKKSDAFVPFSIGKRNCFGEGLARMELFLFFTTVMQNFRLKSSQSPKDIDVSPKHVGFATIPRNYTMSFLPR
# [10] = Oral bioavailability in rat; assay type: ADME, organism-based; settings: in vivo
# Cytochrome P450 3A4 = Cytochrome P450 3A4 (Homo sapiens, UniProt P08684); assay: Inhibition of human CYP3A4; assay type: ADME
# Cytochrome P450 2D6 = Cytochrome P450 2D6 (Homo sapiens, UniProt P10635); assay: Inhibition of human CYP2D6; assay type: ADME
# Rattus norvegicus [11] = assay: Inhibition of carrageenan-induced paw edema in Sprague-Dawley rat at 0.5 mg/kg, po; assay type: functional
# Rattus norvegicus [12] = assay: Inhibition of carrageenan-induced paw edema in Sprague-Dawley rat at 1 mg/kg, po; assay type: functional
# Rattus norvegicus [13] = assay: Inhibition of carrageenan-induced paw edema in Sprague-Dawley rat at 5 mg/kg, po; assay type: functional
# Rattus norvegicus [14] = assay: Inhibition of carrageenan-induced paw edema in Sprague-Dawley rat at 10 mg/kg, po; assay type: functional
# Rattus norvegicus [15] = assay: Inhibition of carrageenan-induced paw edema in Sprague-Dawley rat at 50 mg/kg, po; assay type: functional
# [16] = target: P-selectin (Homo sapiens) (UniProt P16109); assay: Inhibition of human recombinant P-selectin expressed in CHO cells by Biacore assay at 2 mM
# Rattus norvegicus [17] = assay: Inhibition of Freund's complete adjuvant-induced arthritis in Lewis rat at 5 mg/kg, po; assay type: functional, organism-based; set-up: dose 5 mg/kg
# Sequence of Dihydroorotate dehydrogenase (quinone), mitochondrial (Q02127 whole entry): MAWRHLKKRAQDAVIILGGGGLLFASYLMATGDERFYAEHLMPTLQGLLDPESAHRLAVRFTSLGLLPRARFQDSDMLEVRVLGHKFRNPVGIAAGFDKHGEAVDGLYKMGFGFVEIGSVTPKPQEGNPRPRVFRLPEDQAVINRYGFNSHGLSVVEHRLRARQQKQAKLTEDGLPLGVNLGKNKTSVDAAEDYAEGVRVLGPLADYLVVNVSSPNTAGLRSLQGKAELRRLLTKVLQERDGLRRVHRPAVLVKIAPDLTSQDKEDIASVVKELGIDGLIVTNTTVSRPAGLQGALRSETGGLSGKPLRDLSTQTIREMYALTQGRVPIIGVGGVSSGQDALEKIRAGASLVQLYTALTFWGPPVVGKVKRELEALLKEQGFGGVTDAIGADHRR
# Sequence of P-selectin (Homo sapiens) (P16109 whole entry, looked up): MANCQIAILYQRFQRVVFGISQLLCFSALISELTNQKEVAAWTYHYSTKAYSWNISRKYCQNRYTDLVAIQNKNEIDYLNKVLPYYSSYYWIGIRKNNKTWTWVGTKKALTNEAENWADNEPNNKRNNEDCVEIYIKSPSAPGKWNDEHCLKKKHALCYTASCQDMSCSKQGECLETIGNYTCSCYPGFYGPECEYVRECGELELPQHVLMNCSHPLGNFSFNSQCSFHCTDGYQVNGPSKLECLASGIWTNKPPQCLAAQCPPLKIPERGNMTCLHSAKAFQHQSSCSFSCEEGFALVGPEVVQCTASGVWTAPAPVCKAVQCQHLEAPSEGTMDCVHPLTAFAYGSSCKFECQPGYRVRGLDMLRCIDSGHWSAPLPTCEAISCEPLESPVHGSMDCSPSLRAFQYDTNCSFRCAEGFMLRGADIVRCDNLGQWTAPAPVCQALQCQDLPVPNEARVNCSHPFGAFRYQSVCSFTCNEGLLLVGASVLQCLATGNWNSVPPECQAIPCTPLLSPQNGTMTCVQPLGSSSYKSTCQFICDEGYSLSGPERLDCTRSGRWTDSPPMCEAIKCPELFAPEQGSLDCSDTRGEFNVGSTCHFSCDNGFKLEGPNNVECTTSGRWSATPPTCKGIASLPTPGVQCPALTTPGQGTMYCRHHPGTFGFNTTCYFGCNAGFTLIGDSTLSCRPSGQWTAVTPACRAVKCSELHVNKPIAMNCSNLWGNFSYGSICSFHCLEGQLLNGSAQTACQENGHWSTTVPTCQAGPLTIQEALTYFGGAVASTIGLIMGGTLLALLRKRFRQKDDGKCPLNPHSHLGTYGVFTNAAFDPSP
# Sequence of Cytochrome P450 2C19 (P33261 whole entry): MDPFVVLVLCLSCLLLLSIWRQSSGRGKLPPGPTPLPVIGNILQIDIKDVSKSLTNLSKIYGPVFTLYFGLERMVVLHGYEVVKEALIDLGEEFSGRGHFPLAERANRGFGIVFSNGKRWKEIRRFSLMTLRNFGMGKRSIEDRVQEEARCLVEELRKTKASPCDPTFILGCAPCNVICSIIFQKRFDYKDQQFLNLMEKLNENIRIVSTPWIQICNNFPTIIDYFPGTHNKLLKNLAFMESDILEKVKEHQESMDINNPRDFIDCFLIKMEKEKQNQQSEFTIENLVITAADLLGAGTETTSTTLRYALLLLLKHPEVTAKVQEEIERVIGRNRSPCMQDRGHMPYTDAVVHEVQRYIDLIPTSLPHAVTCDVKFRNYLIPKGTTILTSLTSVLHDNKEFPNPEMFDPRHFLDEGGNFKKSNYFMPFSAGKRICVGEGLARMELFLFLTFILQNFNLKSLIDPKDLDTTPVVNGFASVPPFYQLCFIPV
# Sequence of Cytochrome P450 3A4 (P08684 whole entry): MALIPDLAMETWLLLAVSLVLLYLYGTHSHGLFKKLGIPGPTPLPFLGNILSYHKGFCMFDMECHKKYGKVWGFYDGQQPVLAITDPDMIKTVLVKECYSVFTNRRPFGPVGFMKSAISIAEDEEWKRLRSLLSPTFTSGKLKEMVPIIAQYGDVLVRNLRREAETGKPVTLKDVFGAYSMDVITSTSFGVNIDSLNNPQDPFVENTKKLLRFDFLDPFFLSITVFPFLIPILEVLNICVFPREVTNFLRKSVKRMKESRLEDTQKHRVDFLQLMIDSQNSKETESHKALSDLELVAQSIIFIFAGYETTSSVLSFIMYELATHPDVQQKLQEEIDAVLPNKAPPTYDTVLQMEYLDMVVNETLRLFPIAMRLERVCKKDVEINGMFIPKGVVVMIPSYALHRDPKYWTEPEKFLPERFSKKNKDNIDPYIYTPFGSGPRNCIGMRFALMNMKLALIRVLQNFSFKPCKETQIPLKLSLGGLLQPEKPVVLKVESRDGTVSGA
# Sequence of Cytochrome P450 2C9 (P11712 whole entry): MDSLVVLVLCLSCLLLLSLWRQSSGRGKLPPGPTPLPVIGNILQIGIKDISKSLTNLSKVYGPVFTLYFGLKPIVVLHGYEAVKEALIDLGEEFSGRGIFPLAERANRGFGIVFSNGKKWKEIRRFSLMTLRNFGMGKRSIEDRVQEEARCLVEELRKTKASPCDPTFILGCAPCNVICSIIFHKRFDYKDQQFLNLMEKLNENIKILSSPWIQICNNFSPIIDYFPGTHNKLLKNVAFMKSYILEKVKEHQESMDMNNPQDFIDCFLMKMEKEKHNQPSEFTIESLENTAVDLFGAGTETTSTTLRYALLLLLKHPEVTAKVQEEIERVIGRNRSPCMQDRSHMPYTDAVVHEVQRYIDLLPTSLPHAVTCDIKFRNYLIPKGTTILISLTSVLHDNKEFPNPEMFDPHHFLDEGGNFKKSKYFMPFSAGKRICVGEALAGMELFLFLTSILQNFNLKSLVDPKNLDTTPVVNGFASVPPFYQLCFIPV
# Sequence of Cytochrome P450 2D6 (P10635 whole entry): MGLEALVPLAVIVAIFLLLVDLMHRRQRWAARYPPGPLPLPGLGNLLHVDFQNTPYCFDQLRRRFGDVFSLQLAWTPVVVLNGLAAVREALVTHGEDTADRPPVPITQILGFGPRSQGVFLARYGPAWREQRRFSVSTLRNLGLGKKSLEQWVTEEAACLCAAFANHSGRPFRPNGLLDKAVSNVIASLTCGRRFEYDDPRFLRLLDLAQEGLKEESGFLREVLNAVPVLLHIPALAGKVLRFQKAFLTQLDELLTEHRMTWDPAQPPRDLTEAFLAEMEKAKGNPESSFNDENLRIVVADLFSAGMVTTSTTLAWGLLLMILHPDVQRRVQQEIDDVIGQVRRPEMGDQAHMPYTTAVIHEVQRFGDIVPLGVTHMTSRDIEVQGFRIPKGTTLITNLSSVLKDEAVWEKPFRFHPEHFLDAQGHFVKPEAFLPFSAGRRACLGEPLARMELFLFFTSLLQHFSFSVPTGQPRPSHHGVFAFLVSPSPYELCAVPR
# Sequence of Dihydroorotate dehydrogenase (quinone), mitochondrial (Rattus norvegicus) (Q63707 whole entry): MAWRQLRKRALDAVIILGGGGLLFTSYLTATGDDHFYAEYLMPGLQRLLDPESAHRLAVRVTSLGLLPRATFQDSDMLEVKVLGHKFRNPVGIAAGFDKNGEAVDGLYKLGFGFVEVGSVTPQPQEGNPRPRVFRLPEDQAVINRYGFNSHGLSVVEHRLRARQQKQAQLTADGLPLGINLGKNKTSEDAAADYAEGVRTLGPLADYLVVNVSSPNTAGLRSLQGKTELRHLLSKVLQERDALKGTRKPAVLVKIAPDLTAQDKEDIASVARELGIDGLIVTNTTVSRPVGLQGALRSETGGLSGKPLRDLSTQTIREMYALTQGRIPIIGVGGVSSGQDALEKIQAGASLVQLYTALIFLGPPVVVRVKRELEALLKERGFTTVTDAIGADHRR
structure (smiles),measurement,setting,value
Cc1ccc2c(C(=O)O)c(O)c(-c3cccc(Cl)c3)nc2c1C,IC50,HUVEC,5 µM
O=C(O)c1c(O)c(-c2ccc(Cl)cc2)nc2c(Br)cccc12,IC50,HUVEC,20 µM
same,IC50,[1],132 µM
COc1ccc(-c2ccc3nc(-c4ccc(Cl)cc4)c(O)c(C(=O)O)c3c2)cc1,inhibition,[2],39%
O=C(O)c1c(O)c(-c2ccc(Cl)cc2)nc2c(Cl)cccc12,IC50,HUVEC,22 µM
same,IC50,[1],141 µM
O=C(O)c1cc(-c2ccccc2)nc2ccccc12,inhibition,[3],22%
Cc1ccc2c(C(=O)O)c(O)c(-c3ccc(C(C)C)cc3)nc2c1C,IC50,HUVEC,8 µM
CCC(C)c1cccc2c(C(=O)O)c(O)c(-c3ccc(Cl)cc3)nc12 (stereo not drawn),IC50,HUVEC,3 µM
same,clearance,[4],13.3 mL/min/kg
same,AUC,[5],3.45 µM·h
same,Cmax,[6],6.7 µM
same,IC50,[1],301 µM
Cc1ccc2c(C(=O)O)c(O)c(-c3ccc(Br)cc3)nc2c1C,IC50,HUVEC,6 µM
same,clearance,[4],6.2 mL/min/kg
same,AUC,[5],6.52 µM·h
same,Cmax,[6],5.5 µM
O=C(O)c1ccc(-c2ccc3nc(-c4ccc(Cl)cc4)c(O)c(C(=O)O)c3c2)cc1,IC50,[1],135 µM
Oc1cc2ccccc2nc1-c1ccccc1,Activity,[3],inactive
Cc1cc(OC(F)(F)F)cc2c(C(=O)O)c(O)c(-c3ccc(Cl)cc3)nc12,IC50,HUVEC,15.5 µM
CCN(CC)c1ccc(-c2nc3c(C)c(C)ccc3c(C(=O)O)c2O)cc1,IC50,HUVEC,19 µM
O=C(O)c1c(O)c(-c2ccc(Cl)cc2)nc2c(C(F)(F)F)cccc12,IC50,HUVEC,13 µM
same,IC50,[1],136 µM
Cc1cccc2c(C(=O)O)c(O)c(-c3ccc(Cl)cc3)nc12,IC50,HUVEC,13 µM
same,IC50,[1],212 µM
Cc1ccc2c(C(=O)O)c(O)c(-c3cccc(OC(F)(F)F)c3)nc2c1C,IC50,HUVEC,5 µM
CC(C)c1cccc2c(C(=O)O)c(O)c(-c3ccc(Cl)cc3)nc12,IC50,HUVEC,4.7 µM
same,clearance,[4],6.5 mL/min/kg
same,AUC,[5],6.7 µM·h
same,Cmax,[6],7 µM
same,IC50,[1],283 µM
CCc1cccc2c(C(=O)O)c(O)c(-c3ccc(Cl)cc3)nc12,IC50,HUVEC,10 µM
Nc1c(-c2ccc(-c3ccccc3)cc2)nc2ccc(F)cc2c1C(=O)O,IC50,[1],0.012 µM
same,LD50,[7],20.5 mg/kg
O=C(O)c1c(O)c(-c2ccc(Cl)cc2)nc2c(-c3ccccc3)cccc12,IC50,HUVEC,4.5 µM
same,clearance,[4],9.1 mL/min/kg
same,AUC,[5],3.93 µM·h
same,Cmax,[6],9 µM
same,Activity,Rattus norvegicus [8],Non-toxic
same,concentration,Rattus norvegicus [9],0.5 µM
same,IC50,Cytochrome P450 2C9,8.2 µM
same,IC50,Cytochrome P450 2C8,4.8 µM
same,IC50,Cytochrome P450 1A2,500 µM
same,IC50,Cytochrome P450 2C19,146 µM
same,IC50,Cytochrome P450 2A6,500 µM
same,bioavailability,[10],24%
same,IC50,Cytochrome P450 3A4,55 µM
same,IC50,Cytochrome P450 2D6,151 µM
CN(C)c1ccc(-c2cccc3c(C(=O)O)c(O)c(-c4ccc(Cl)cc4)nc23)cc1,IC50,HUVEC,20 µM
O=C(O)c1c(O)c(-c2ccc(Cl)cc2)nc2ccc(-c3ccccc3)cc12,IC50,[1],230 µM
O=C(O)c1c(O)c(-c2ccc(Cl)cc2)nc2c(OC(F)(F)F)cccc12,IC50,HUVEC,10.5 µM
same,IC50,[1],130 µM
Cc1ccc2c(C(=O)O)c(O)c(-c3ccc(Cl)cc3)nc2c1C,IC50,HUVEC,10 µM
same,clearance,[4],6.2 mL/min/kg
same,AUC,[5],7.68 µM·h
same,Cmax,[6],13 µM
same,Activity,Rattus norvegicus [8],Non-toxic
same,concentration,Rattus norvegicus [9],1.8 µM
same,IC50,Cytochrome P450 2C9,2 µM
same,IC50,Cytochrome P450 2C8,9 µM
same,IC50,Cytochrome P450 1A2,4 µM
same,IC50,Cytochrome P450 2C19,1 µM
same,IC50,Cytochrome P450 2A6,20 µM
same,inhibition in vivo at 0.5 mg/kg,Rattus norvegicus [11],10.8%
same,inhibition in vivo at 1 mg/kg,Rattus norvegicus [12],12.8%
same,inhibition in vivo at 5 mg/kg,Rattus norvegicus [13],10.3%
same,inhibition in vivo at 10 mg/kg,Rattus norvegicus [14],14.1%
same,inhibition in vivo at 50 mg/kg,Rattus norvegicus [15],15.6%
same,IC50,Cytochrome P450 3A4,7 µM
same,IC50,Cytochrome P450 2D6,17 µM
COc1ccc2cc([C@H](C)C(=O)O)ccc2c1 [NAPROXEN],inhibition in vivo at 10 mg/kg,Rattus norvegicus [14],68.3%
O=C(O)c1c(O)c(-c2ccc(Cl)cc2)nc2ccc(OC(F)(F)F)cc12,IC50,HUVEC,25 µM
O=C(O)c1c(O)c(-c2ccc(Cl)cc2)nc2ccc(-c3ccsc3)cc12,IC50,[1],134 µM
COc1cccc2c(C(=O)O)c(O)c(-c3ccc(Cl)cc3)nc12,IC50,[1],306 µM
O=C(O)c1c(O)c(-c2ccc(Cl)cc2)nc2ccc(Cl)cc12,inhibition,[16],38%
Cc1ccc(-c2cc(C(F)(F)F)nn2-c2ccc(S(N)(=O)=O)cc2)cc1,Activity,Rattus norvegicus [17],Active
COc1ccc2c(C(=O)O)c(O)c(-c3ccc(Cl)cc3)nc2c1,IC50,[1],151 µM
Cc1ccc2c(C(=O)O)c(O)c(-c3ccc(C(F)(F)F)cc3)nc2c1C,IC50,HUVEC,7 µM
same,clearance,[4],4.7 mL/min/kg
same,AUC,[5],8.58 µM·h
same,Cmax,[6],9 µM
Cc1ccc2c(C(=O)O)c(O)c(-c3ccc(OC(F)(F)F)cc3)nc2c1C,IC50,HUVEC,15 µM
COc1c(-c2ccccc2)nc2ccccc2c1C(=O)O,inhibition,[3],22%
